Data published in patent US6376497B1, “Antifungal azole derivatives having a fluorinated vinyl group and process for preparing same” (Korea Research Institute of Chemical Technology, priority 1999, dated 2002).
Converted amounts (≈) assume the structure as drawn.

Key:
Test in all cases: In vitro antifungal activity, microbroth dilution MIC
Format in all cases: cell-based
[1] = tested on: Aspergillus niger A. 16404; conditions: 4 to 48 hours; for Minimal inhibitory concentration(MIC), A. niger A. 16404: RPMI-1640, 35° C., no growth observed; for Minimal inhibitory concentration (MIC): A. niger A. 16404, RPMI-1640, 35° C.
How it was run: (§1)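 Broth microdilution adapted from NCCLS M27, in RPMI-1640 with 0.165 M MOPS, pH 7.0. Yeast or mould inoculum at 2×10^3 CFU/ml was mixed 1:1 with DMSO-derived compound solutions (200 to 0.10 μg/ml before mixing) and incubated at 35 °C for 4 to 48 h. MIC was the concentration showing no growth.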

[2] = tested on: Candida pseudotropicalis K. 11658; conditions: 4 to 48 hours; for Minimal inhibitory concentration(MIC), C. pseudotropicalis K. 11658: RPMI-1640, 35° C., no growth observed; for Minimal inhibitory concentration (MIC): C. pseudotropicalis K. 11658, RPMI-1640, 35° C.
How it was run: as §1

[3] = tested on: Cryptococcus neoformans IFM. 40092; conditions: 4 to 48 hours; for Minimal inhibitory concentration(MIC), Cry. neoformans IFM. 40092: RPMI-1640, 35° C., no growth observed; for Minimal inhibitory concentration (MIC): Cry. neoformans IFM. 40092, RPMI-1640, 35° C.
How it was run: as §1

[4] = tested on: Cryptococcus neoformans A. 34144; conditions: 4 to 48 hours; for Minimal inhibitory concentration(MIC), Cry. neoformans A. 34144: RPMI-1640, 35° C., no growth observed; for Minimal inhibitory concentration (MIC): Cry. neoformans A. 34144, RPMI-1640, 35° C.
How it was run: as §1

[5] = tested on: Cryptococcus neoformans B. 42419; conditions: 4 to 48 hours; for Minimal inhibitory concentration(MIC), Cry. neoformans B. 42419: RPMI-1640, 35° C., no growth observed; for Minimal inhibitory concentration (MIC): Cry. neoformans B. 42419, RPMI-1640, 35° C.
How it was run: as §1

Candida albicans C1-2 = conditions: 4 to 48 hours; for Minimal inhibitory concentration(MIC), C. albicans C1-2: RPMI-1640, 35° C., no growth observed; for Minimal inhibitory concentration (MIC): C. albicans C1-2, RPMI-1640, 35° C.
How it was run: as §1

[6] = tested on: Candida albicans A. 10231; conditions: 4 to 48 hours; for Minimal inhibitory concentration(MIC), C. albicans A. 10231: RPMI-1640, 35° C., no growth observed; for Minimal inhibitory concentration (MIC): C. albicans A. 10231, RPMI-1640, 35° C.
How it was run: as §1

Candida krusei K. 11655 = conditions: 4 to 48 hours; for Minimal inhibitory concentration(MIC), C. krusei K. 11655: RPMI-1640, 35° C., no growth observed; for Minimal inhibitory concentration (MIC): C. krusei K. 11655, RPMI-1640, 35° C.
How it was run: as §1

[7] = tested on: Candida parapsitosis A. 7330; conditions: 4 to 48 hours; for Minimal inhibitory concentration(MIC), C. parapsitosis A. 7330: RPMI-1640, 35° C., no growth observed; for Minimal inhibitory concentration (MIC): C. parapsitosis A. 7330, RPMI-1640, 35° C.
How it was run: as §1

[8] = tested on: Aspergillus furnigatus B. 19119; conditions: 4 to 48 hours; for Minimal inhibitory concentration(MIC), A furnigatus B. 19119: RPMI-1640, 35° C., no growth observed; for Minimal inhibitory concentration (MIC): A furnigatus B. 19119, RPMI-1640, 35° C.
How it was run: as §1

[9] = tested on: Trichophyton mentagrophytes A. 9129; conditions: 4 to 48 hours; for Minimal inhibitory concentration(MIC), T. mentagrophytes A. 9129: RPMI-1640, 35° C., no growth observed; for Minimal inhibitory concentration (MIC): T. mentagrophytes A. 9129, RPMI-1640, 35° C.
How it was run: as §1

[10] = tested on: Torulopsis glabrata B. 16205; conditions: 4 to 48 hours; for Minimal inhibitory concentration(MIC), T. glabrata B. 16205: RPMI-1640, 35° C., no growth observed; for Minimal inhibitory concentration (MIC): T. glabrata B. 16205, RPMI-1640, 35° C.
How it was run: as §1

[11] = tested on: Candida albicans IFO. 1385; conditions: 4 to 48 hours; for Minimal inhibitory concentration(MIC), C. albicans IFO. 1385: RPMI-1640, 35° C., no growth observed; for Minimal inhibitory concentration (MIC): C. albicans IFO. 1385, RPMI-1640, 35° C.
How it was run: as §1

[12] = tested on: Candida tropicalis A. 13803; conditions: 4 to 48 hours; for Minimal inhibitory concentration(MIC), C. tropicalis A. 13803: RPMI-1640, 35° C., no growth observed; for Minimal inhibitory concentration (MIC): C. tropicalis A. 13803, RPMI-1640, 35° C.
How it was run: as §1

[13] = tested on: Trichophyton mentagrophytes B. 32663; conditions: 4 to 48 hours; for Minimal inhibitory concentration(MIC), T. mentagrophytes B. 32663: RPMI-1640, 35° C., no growth observed; for Minimal inhibitory concentration (MIC): T. mentagrophytes B. 32663, RPMI-1640, 35° C.
How it was run: as §1

Minimal inhibitory concentration(MIC), A. niger A. 16404 [1] [µg/mL] | Minimal inhibitory concentration(MIC), C. pseudotropicalis K. 11658 [2] [µg/mL] | Minimal inhibitory concentration(MIC), Cry. neoformans IFM. 40092 [3] [µg/mL] | Minimal inhibitory concentration(MIC), Cry. neoformans A. 34144 [4] [µg/mL] | Minimal inhibitory concentration(MIC), Cry. neoformans B. 42419 [5] [µg/mL] | Minimal inhibitory concentration(MIC), C. albicans C1-2 (Candida albicans C1-2) [µg/mL] | Minimal inhibitory concentration(MIC), C. albicans A. 10231 [6] [µg/mL] | Minimal inhibitory concentration(MIC), C. krusei K. 11655 (Candida krusei K. 11655) [µg/mL] | Minimal inhibitory concentration(MIC), C. parapsitosis A. 7330 [7] [µg/mL] | Minimal inhibitory concentration(MIC), A furnigatus B. 19119 [8] [µg/mL] | Minimal inhibitory concentration(MIC), T. mentagrophytes A. 9129 [9] [µg/mL] | Minimal inhibitory concentration(MIC), T. glabrata B. 16205 [10] [µg/mL] | Minimal inhibitory concentration(MIC), C. albicans IFO. 1385 [11] [µg/mL] | Minimal inhibitory concentration(MIC), C. tropicalis A. 13803 [12] [µg/mL] | Minimal inhibitory concentration(MIC), T. mentagrophytes B. 32663 [13] [µg/mL] | Minimal inhibitory concentration (MIC) [1] [µg/mL] | Minimal inhibitory concentration (MIC) [2] [µg/mL] | Minimal inhibitory concentration (MIC) [3] [µg/mL] | Minimal inhibitory concentration (MIC) [4] [µg/mL] | Minimal inhibitory concentration (MIC) [5] [µg/mL] | Compound | further results
 |  |  |  |  |  |  |  |  |  |  |  |  |  |  | 12.5 | 25.0 | 0.20 | 1.56 | 1.56 | FC(=Cc1cccc2ccccc12)OCC1COC(Cn2ccnc2)(c2ccc(F)cc2F)O1 (mixture of isomers) [Ex. 51] | Minimal inhibitory concentration (MIC) (Candida albicans C1-2): 12.5 µg/mL; Minimal inhibitory concentration (MIC) [6]: 12.5 µg/mL; Minimal inhibitory concentration (MIC) (Candida krusei K. 11655): 50.0 µg/mL; Minimal inhibitory concentration (MIC) [7]: >100 µg/mL; Minimal inhibitory concentration (MIC) [8]: 3.13 µg/mL; Minimal inhibitory concentration (MIC) [9]: 1.56 µg/mL; Minimal inhibitory concentration (MIC) [10]: 6.25 µg/mL; Minimal inhibitory concentration (MIC) [11]: 0.39 µg/mL; Minimal inhibitory concentration (MIC) [12]: 25.0 µg/mL; Minimal inhibitory concentration (MIC) [13]: 0.78 µg/mL
 |  |  |  |  |  |  |  |  |  |  |  |  |  |  | 100 (≈ 183 µM) | 100 (≈ 183 µM) | 0.78 (≈ 1.43 µM) | 1.56 (≈ 2.86 µM) | 1.56 (≈ 2.86 µM) | CCc1ccc(C(=C(F)OCC2COC(Cn3ccnc3)(c3ccc(Cl)cc3Cl)O2)C(F)(F)F)cc1 (stereo not drawn) [Ex. 22] | Minimal inhibitory concentration (MIC) (Candida albicans C1-2): 12.5 µg/mL (≈ 22.9 µM); Minimal inhibitory concentration (MIC) [6]: 6.25 µg/mL (≈ 11.5 µM); Minimal inhibitory concentration (MIC) (Candida krusei K. 11655): 100 µg/mL (≈ 183 µM); Minimal inhibitory concentration (MIC) [7]: >100 µg/mL; Minimal inhibitory concentration (MIC) [8]: 50.0 µg/mL (≈ 91.7 µM); Minimal inhibitory concentration (MIC) [9]: 25.0 µg/mL (≈ 45.8 µM); Minimal inhibitory concentration (MIC) [10]: 25.0 µg/mL (≈ 45.8 µM); Minimal inhibitory concentration (MIC) [11]: 0.78 µg/mL (≈ 1.43 µM); Minimal inhibitory concentration (MIC) [12]: 25.0 µg/mL (≈ 45.8 µM); Minimal inhibitory concentration (MIC) [13]: 12.5 µg/mL (≈ 22.9 µM)
 |  |  |  |  |  |  |  |  |  |  |  |  |  |  | 12.5 (≈ 25.1 µM) | 6.25 (≈ 12.6 µM) | 0.20 (≈ 0.402 µM) | 1.56 (≈ 3.13 µM) | 1.56 (≈ 3.13 µM) | Cc1cc(C=C(F)OCC2COC(Cn3ccnc3)(c3ccc(Cl)cc3Cl)O2)ccc1Cl (stereo not drawn) [Ex. 17] | Minimal inhibitory concentration (MIC) (Candida albicans C1-2): 12.5 µg/mL (≈ 25.1 µM); Minimal inhibitory concentration (MIC) [6]: 12.5 µg/mL (≈ 25.1 µM); Minimal inhibitory concentration (MIC) (Candida krusei K. 11655): 12.5 µg/mL (≈ 25.1 µM); Minimal inhibitory concentration (MIC) [7]: 50.0 µg/mL (≈ 100 µM); Minimal inhibitory concentration (MIC) [8]: 6.25 µg/mL (≈ 12.6 µM); Minimal inhibitory concentration (MIC) [9]: 12.5 µg/mL (≈ 25.1 µM); Minimal inhibitory concentration (MIC) [10]: 6.25 µg/mL (≈ 12.6 µM); Minimal inhibitory concentration (MIC) [11]: 0.78 µg/mL (≈ 1.57 µM); Minimal inhibitory concentration (MIC) [12]: 12.5 µg/mL (≈ 25.1 µM); Minimal inhibitory concentration (MIC) [13]: 3.13 µg/mL (≈ 6.29 µM)

The next lines start with the compound.

Compound | Minimal inhibitory concentration(MIC), A. niger A. 16404 [1] [µg/mL] | Minimal inhibitory concentration(MIC), C. pseudotropicalis K. 11658 [2] [µg/mL] | Minimal inhibitory concentration(MIC), Cry. neoformans IFM. 40092 [3] [µg/mL] | Minimal inhibitory concentration(MIC), Cry. neoformans A. 34144 [4] [µg/mL] | Minimal inhibitory concentration(MIC), Cry. neoformans B. 42419 [5] [µg/mL] | Minimal inhibitory concentration(MIC), C. albicans C1-2 (Candida albicans C1-2) [µg/mL] | Minimal inhibitory concentration(MIC), C. albicans A. 10231 [6] [µg/mL] | Minimal inhibitory concentration(MIC), C. krusei K. 11655 (Candida krusei K. 11655) [µg/mL] | Minimal inhibitory concentration(MIC), C. parapsitosis A. 7330 [7] [µg/mL] | Minimal inhibitory concentration(MIC), A furnigatus B. 19119 [8] [µg/mL] | Minimal inhibitory concentration(MIC), T. mentagrophytes A. 9129 [9] [µg/mL] | Minimal inhibitory concentration(MIC), T. glabrata B. 16205 [10] [µg/mL] | Minimal inhibitory concentration(MIC), C. albicans IFO. 1385 [11] [µg/mL] | Minimal inhibitory concentration(MIC), C. tropicalis A. 13803 [12] [µg/mL] | Minimal inhibitory concentration(MIC), T. mentagrophytes B. 32663 [13] [µg/mL] | Minimal inhibitory concentration (MIC) [1] [µg/mL] | Minimal inhibitory concentration (MIC) [2] [µg/mL] | Minimal inhibitory concentration (MIC) [3] [µg/mL] | Minimal inhibitory concentration (MIC) [4] [µg/mL] | Minimal inhibitory concentration (MIC) [5] [µg/mL] | further results
FC(Oc1ccc(OCC2COC(Cn3ccnc3)(c3ccc(Cl)cc3Cl)O2)cc1)=C(c1ccc2c(c1)OCO2)C(F)(F)F (mixture of isomers) [Ex. 99] | >100 | >100 | 0.78 | 3.13 | 3.13 | >100 | 100 | >100 | >100 | >100 | 50.0 | 100 | 3.13 | >100 | 25.0 |  |  |  |  |  | 
CCOc1ccc(C(=C(F)OCC2COC(Cn3cncn3)(c3ccc(Cl)cc3Cl)O2)C(F)(F)F)cc1 (mixture of isomers) [Ex. 85] | >100 | >100 | 0.39 | 1.56 | 1.56 | 100 | 100 | >100 | >100 | >100 | >100 | >100 | 25.0 | >100 | >100 |  |  |  |  |  | 
FC(Oc1ccc(OCC2COC(Cn3ccnc3)(c3ccc(F)cc3F)O2)cc1)=C(c1ccc(Oc2ccccc2)cc1)C(F)(F)F (mixture of isomers) [Ex. 113] | >100 | 100 | 0.39 | 1.56 | 3.13 | >100 | >100 | >100 | >100 | >100 | 25.0 | >100 | 3.13 | >100 | 12.5 |  |  |  |  |  | 
FC(Oc1ccc(OCC2COC(Cn3ccnc3)(c3ccc(Cl)cc3Cl)O2)cc1)=C(c1cccc(F)c1)C(F)(F)F (mixture of isomers) [Ex. 103] | >100 | >100 | 0.78 | 3.13 | 3.13 | 50.0 | 50.0 | >100 | >100 | 100 | 12.5 | 50.0 | 3.13 | >100 | 6.25 |  |  |  |  |  | 
